Test results taken from patent publication US8173682B2, “Substituted pyridones as inhibitors of poly(ADP-ribose) polymerase (PARP)” (Aventis Pharmaceuticals Inc., priority 2004, dated 2012).
Counter-ions that a name gives are not always drawn. Values belong to the compound of their own block, whether it stands above or below them.

Columns and labels:
[1] = target: T1, recombinant human PARP (PARP1) (Homo sapiens, UniProt P09874); assay: PARP enzyme assay, Method A (radioactivity or 'ELISA' enzyme assay with partially purified enzyme); type: biochemical; settings: recombinant human PARP preparation, radioactive or ELISA enzyme assay
T1 construct: Full length human PARP (PARP1) is assembled from PCR fragments; His6 tag with TEV site, from the pFastBac-HTb vector (own knowledge of the vector); made in house; host or cells: insect cells, baculovirus (Bac-to-Bac, Gibco-BRL)
T1 sequence (P09874 whole entry, the tested form may be a part): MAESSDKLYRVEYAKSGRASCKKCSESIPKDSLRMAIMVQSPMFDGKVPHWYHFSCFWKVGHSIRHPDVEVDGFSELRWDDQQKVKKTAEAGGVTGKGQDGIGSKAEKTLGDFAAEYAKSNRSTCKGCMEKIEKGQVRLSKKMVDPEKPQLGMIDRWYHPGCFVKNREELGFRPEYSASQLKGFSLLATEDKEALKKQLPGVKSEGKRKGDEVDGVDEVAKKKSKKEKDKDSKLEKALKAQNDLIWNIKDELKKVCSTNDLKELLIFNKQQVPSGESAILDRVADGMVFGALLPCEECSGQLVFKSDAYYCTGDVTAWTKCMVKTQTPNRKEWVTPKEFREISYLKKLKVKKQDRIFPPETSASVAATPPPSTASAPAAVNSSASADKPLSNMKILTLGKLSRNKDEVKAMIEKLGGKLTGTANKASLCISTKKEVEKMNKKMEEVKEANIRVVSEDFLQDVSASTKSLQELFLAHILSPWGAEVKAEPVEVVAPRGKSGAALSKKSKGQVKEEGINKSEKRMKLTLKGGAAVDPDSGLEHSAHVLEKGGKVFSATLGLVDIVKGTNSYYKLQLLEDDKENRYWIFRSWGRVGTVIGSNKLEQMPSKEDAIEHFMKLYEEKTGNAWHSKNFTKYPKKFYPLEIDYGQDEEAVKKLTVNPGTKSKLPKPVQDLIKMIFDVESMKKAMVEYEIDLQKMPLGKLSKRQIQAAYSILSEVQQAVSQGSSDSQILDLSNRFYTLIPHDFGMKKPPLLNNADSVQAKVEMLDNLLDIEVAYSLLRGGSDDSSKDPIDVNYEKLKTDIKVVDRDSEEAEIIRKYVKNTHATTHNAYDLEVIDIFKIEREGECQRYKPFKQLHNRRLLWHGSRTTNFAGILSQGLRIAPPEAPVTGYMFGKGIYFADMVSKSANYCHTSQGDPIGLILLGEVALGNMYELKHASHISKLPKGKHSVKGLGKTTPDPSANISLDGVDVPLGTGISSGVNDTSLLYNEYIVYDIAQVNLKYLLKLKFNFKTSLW
In short: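 Partially purified recombinant full-length His-tagged human PARP1, baculovirus-expressed. Radioactive format: 100 μg/mL sonicated DNA, 100 μg/mL histones, 100 mM Tris pH 8.0, 10 mM MgCl2, 200 μM labeled NAD, 10 min 37 °C or 60 min RT, TCA-precipitated counts. ELISA format: 250 μM NAD plus biotin-NAD on histone plates, TMB A450.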

[2] = tested on: intracellular synthesis of poly(ADP-ribose) in HL60 cells; assay: Cell-based PARP assay (poly(ADP-ribose) immunodetection in fixed cells); settings: Homo sapiens, HL-60, overnight incubation with compound, serum-free media
Procedure: The following example illustrates the efficacy of the compounds of this invention in inhibiting the effects of PARP in a cell based assay.
Reagents: Media RMPI 1640+Glutamax: Gibco 61870-044); TBST/milk, TBST (Sigma T93039) containing 5% skimmed milk (Nestle Carnation nonfat dry milk)
HL60 cells at […] in serum free media are seeded into the wells of a 96-well plate at 100 μL/well. The plate is pre-incubated for 3 hr under normal tissue culture conditions. One hundred μL of serum-free media containing compound at 2× the required concentration in 0.6% DMSO are added (or 0.6% DMSO only to controls and blanks). The plate is incubated overnight under normal tissue culture conditions, then centrifuged at 190×g for 5 min at 4° C. to pellet cells. The media is carefully removed by aspiration, and the cells are incubated in 100 μL/well ice-cold 0.56% KCl for 2 min on ice. The plate is centrifuged as above to pellet cells, the KCl removed by aspiration, and 100 μL/well ice-cold methanol added. After 4 min on ice, methanol is removed by aspiration and the cells air-dried for 10-15 min at rt. The cells are washed with PBS×3, then washed with TBST/milk (1 wash, 5 min incubation at rt). The cells are incubated with 100 μL/well 0.25% Triton X 100 in PBS for 10 min at RT, then washed x# with PBS and ×1 with TBST. The cells are blocked for 1 hr with TBST/milk (200 μL/well) and then washed ×1 with TBST. The fixed cells are incubated with primary antibody (Calbiochem cat no. 528815) at 1:2000 dilution in TBST/milk (100 μL/well, overnight at 4 deg C.). The cells are washed with TBST (2 rinses, 1×15 min, 2×5 min at RT). The cells are incubated with secondary antibody (anti-rabbit Ig-biotin conjugate, Amersham RPN1004) in TBST/milk at 1:3500 dilution, 100 μL/well for 1 hr at RT. The cells are washed with TBST (2 rinses, 1×15 min, 2×5 min at RT). The cells are then incubated with 100 μL/well of 4-MUP (Sigma, M3168) in the dark for 4 hrs. The fluorescence is read using a plate reader (excitation at 360 nm, emission at 440 nm). To calculate compound effects, the fluorescence of the blank (no cells) is subtracted from all data. Fluorescence obtained with a standard cell-permeable potent inhibitor at 30 μM is subtracted from all other groups as this appears to represent a true blank. Compound effects can then be determined: a PARP inhibitor blocks the intracellular synthesis of poly(ADP-ribose), and results in a decreased reactivity (reduced final fluorescence) with primary antibody in the fixed and permeabilized cells.
The results obtained from this study are expressed as EC50 (median effective concentration of the test compound that was effective in preventing the cell death—expressed in micromolar (μM) concentration) for each of the tested compounds and are summarized in Table 2.

[3] = target: recombinantly expressed human PARP-1 enzyme (Homo sapiens, UniProt P09874); assay: PARP enzyme assay, Method B (tritium-labeled NAD incorporation); type: biochemical; settings: Method B; 200 μM NAD, room temperature 1 hour, pH 8.0; read-out: IC50 (μM)/Method B
Sequence of recombinantly expressed human PARP-1 enzyme (P09874 whole entry): as the sequence (P09874 whole entry, the tested form may be a part) above
In short: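 DNA-activated purified recombinant enzyme (2 μg/mL) incubated with test compound for 1 h at room temperature, pH 8.0, with 200 μM NAD plus tritiated NAD, DNA and histones. TCA-precipitated radiolabelled protein collected on glass-fibre filters and counted; IC50 is the concentration halving incorporation versus no-inhibitor control.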

Compound: CCc1cc(-c2ccc(S(=O)(=O)N3CCC(N4CCCCC4)CC3)s2)c(C)[nH]c1=O [Example 67, 3-Ethyl-6-methyl-5-{5-[(4-piperidin-1-yl)piperidine-1-sulfonyl]thiophen-2-yl}-1H-pyridin-2-one hydrochloride]
IC50 [1]: 0.3 µM | EC50 [2]: 3110 nM

Compound: Cc1[nH]c(=O)c2c(c1-c1cccc(C#N)c1)CCCC2 [Example 5, 3-(3-Methyl-1-oxo-1,2,5,6,7,8-hexahydroisoquinolin-4-yl)benzonitrile]
IC50 [1]: 0.2 µM | EC50 [2]: 500 nM

Compound: CCc1cc(-c2ccc(S(=O)(=O)NCc3ccncc3)s2)c(C)[nH]c1=O [Example 110, 5-(5-ethyl-2-methyl-6-oxo-1,6-dihydropyridin-3-yl)thiophene-2-sulfonic acid (pyridin-4-ylmethyl)amide hydrochloride]
IC50 [1]: 0.08 µM | EC50 [2]: 20 nM

Compound: CCc1cc(-c2ccc(S(=O)(=O)NCCN3CCCC3)s2)c(C)[nH]c1=O [Example 95, 5-(5-Ethyl-2-methyl-6-oxo-1,6-dihydropyridin-3-yl)thiophene-2-sulfonic acid (2-pyrrolidin-1-yl)ethylamide hydrochloride]
IC50 [1]: 0.2 µM | EC50 [2]: 220 nM

Compound: CCc1cc(-c2ccc(S(=O)(=O)NCc3nc4ccccc4[nH]3)s2)c(C)[nH]c1=O [Example 118, 5-(5-Ethyl-2-methyl-6-oxo-1,6-dihydro-pyridin-3-yl)thiophene-2-sulfonic acid (1H-benzimidazol-2-ylmethyl)amide hydrochloride]
IC50 [1]: 0.15 µM | EC50 [2]: 30000 nM

Compound: CCc1cc(-c2ccc(CN3CCCC(O)C3)s2)c(C)[nH]c1=O (stereo not drawn) [Example 126, 3-Ethyl-5-[5-(3-hydroxypiperidin-1-ylmethyl)thiophen-2-yl]-6-methyl-1H-pyridin-2-one hydrochloride]
IC50 [1]: 0.43 µM | EC50 [2]: 30800 nM

Compound: CCc1cc(-c2cccc(C(=O)N3CCCC3)n2)c(C)[nH]c1=O [Example 207, 5′-Ethyl-2′-methyl-6-(pyrrolidine-1-carbonyl)-1′H-[2,3′]bipyridinyl-6′-one]
IC50 [3]: 4.72 µM

Compound: CCc1cc(-c2ccc(S(=O)(=O)NCc3ccc(OC)cc3)s2)c(C)[nH]c1=O [Example 122B, 5-(5-Ethyl-2-methyl-6-oxo-1,6-dihydro-pyridin-3-yl)-thiophene-2-sulfonic acid 4-methoxy-benzylamide]
IC50 [3]: 0.13 µM

Compound: CCc1cc(-c2ccc(C(=O)N3CCCC3)cn2)c(C)[nH]c1=O [Example 211, 5′-Ethyl-2′-methyl-5-(pyrrolidine-1-carbonyl)-1′H-[2,3′]bipyridinyl-6′-one]
IC50 [3]: 8.6 µM

Compound: CCc1cc(-c2cccc(CN3CCC(O)CC3)n2)c(C)[nH]c1=O [Example 182I, 5′-Ethyl-6-(4-hydroxy-piperidin-1-ylmethyl)-2′-methyl-1′H-[2,3′]bipyridinyl-6′-one]
IC50 [3]: 8.61 µM

Compound: CCc1cc(-c2cccc(CN3CCCC3)n2)c(C)[nH]c1=O [Example 182G, 5′-Ethyl-2′-methyl-6-pyrrolidin-1-ylmethyl-1′H-[2,3′]bipyridinyl-6′-one]
IC50 [3]: 3.33 µM

Next, values leading:

IC50 [1]: 0.17 µM | EC50 [2]: 50 nM
Compound: CCc1cc(-c2ccc(S(=O)(=O)NCc3cccnc3)s2)c(C)[nH]c1=O [Example 101, 5-(5-Ethyl-2-methyl-6-oxo-1,6-dihydropyridin-3-yl)-thiophene-2-sulfonic acid (pyridin-3-ylmethyl)amide hydrochloride]

IC50 [1]: 0.46 µM | EC50 [2]: 14700 nM
Compound: CCc1cc(-c2ccc(CNC(C)CCc3ccccc3)s2)c(C)[nH]c1=O (stereo not drawn) [Example 136, 3-Ethyl-6-methyl-5-{5-[(1-methyl-3-phenyl-propylamino)-methyl]thiophen-2-yl}-1H-pyridin-2-one hydrochloride]

IC50 [1]: 0.1 µM | EC50 [2]: 240 nM
Compound: CCc1cc(-c2ccc(S(=O)(=O)NCCc3ccncc3)s2)c(C)[nH]c1=O [Example 109, 5-(5-Ethyl-2-methyl-6-oxo-1,6-dihydropyridin-3-yl)thiophene-2-sulfonic acid (2-pyridin-4-yl-ethyl)amide hydrochloride]

IC50 [1]: 0.35 µM | EC50 [2]: 12200 nM
Compound: CCc1cc(-c2ccc(CNC(C)c3ccccc3)s2)c(C)[nH]c1=O (stereo not drawn) [Example 135, 3-Ethyl-6-methyl-5-{5-[(1-phenyl-ethylamino)-methyl]thiophen-2-yl}-1H-pyridin-2-one hydrochloride]

IC50 [3]: 0.73 µM
Compound: CCc1cc(-c2cncc(C(=O)Nc3cc(C(C)(C)C)on3)c2)c(C)[nH]c1=O [Example 259, 5′-Ethyl-2′-methyl-6′-oxo-1′,6′-dihydro-[3,3′]bipyridinyl-5-carboxylic acid (5-tert-butyl-isoxazol-3-yl)-amide]

IC50 [3]: 1.26 µM
Compound: CCc1cc(-c2ccc(CNC(=O)c3cccc(N(C)C)c3)o2)c(C)[nH]c1=O [Example 275, 3-Dimethylamino-N-[5-(5-ethyl-2-methyl-6-oxo-1,6-dihydro-pyridin-3-yl)-furan-2-ylmethyl]-benzamide]

IC50 [3]: 14.8 µM
Compound: CCc1cc(-c2cncc(C(=O)N3CC(O)CC3C(=O)OC)c2)c(C)[nH]c1=O (stereo not drawn) [Example 231, 1-(5′-Ethyl-2′-methyl-6′-oxo-1′,6′-dihydro-[3,3′]bipyridinyl-5-carbonyl)-4-hydroxy-pyrrolidine-2-carboxylic acid methyl ester]

IC50 [3]: 0.5 µM
Compound: CCc1cc(-c2ccc(CNC(=O)c3ccccc3)o2)c(C)[nH]c1=O [Example 271, N-[5-(5-Ethyl-2-methyl-6-oxo-1,6-dihydro-pyridin-3-yl)-furan-2-ylmethyl]-benzamide]

IC50 [3]: 0.29 µM
Compound: CCc1cc(-c2ccc(CNCc3ccc(NC(C)=O)cc3)o2)c(C)[nH]c1=O [Example 182B, N-[4-({[5-(5-Ethyl-2-methyl-6-oxo-1,6-dihydro-pyridin-3-yl)-furan-2-ylmethyl]-amino}-methyl)-phenyl]-acetamide]

IC50 [3]: 0.8 µM
Compound: CCc1cc(-c2cncc(C(=O)N[C@H]3CC=CC[C@H]3C(N)=O)c2)c(C)[nH]c1=O [Example 260, 5′-Ethyl-2′-methyl-6′-oxo-1′,6′-dihydro-[3,3′]bipyridinyl-5-carboxylic acid ((1S,6R)-6-carbamoyl-cyclohex-3-enyl)-amide]

IC50 [3]: 17.4 µM
Compound: CCc1cc(-c2ccc(CN(Cc3ccccc3)Cc3cccnc3)o2)c(C)[nH]c1=O [Example 182A, 5-{5-[(Benzyl-pyridin-3-ylmethyl-amino)-methyl]-furan-2-yl}-3-ethyl-6-methyl-1H-pyridin-2-one]

IC50 [3]: 2.87 µM
Compound: CCc1cc(-c2cc(C(=O)NCCN3CCOCC3)ccn2)c(C)[nH]c1=O [Example 217, 5′-Ethyl-2′-methyl-6′-oxo-1′,6′-dihydro-[2,3′]bipyridinyl-4-carboxylic acid (2-morpholin-4-yl-ethyl)-amide]

IC50 [3]: 1.4 µM
Compound: CCc1cc(-c2ccc(CNC(=O)c3ccccn3)o2)c(C)[nH]c1=O [Example 273, Pyridine-2-carboxylic acid [5-(5-ethyl-2-methyl-6-oxo-1,6-dihydro-pyridin-3-yl)-furan-2-ylmethyl]-amide]

IC50 [3]: 0.82 µM
Compound: CCc1cc(-c2cncc(C(=O)NCCc3ccccc3O)c2)c(C)[nH]c1=O [Example 232, 5′-Ethyl-2′-methyl-6′-oxo-1′,6′-dihydro-[3,3′]bipyridinyl-5-carboxylic acid [2-(2-hydroxy-phenyl)-ethyl]-amide]

IC50 [3]: 13 µM
Compound: CCCCNC(=O)c1ccc(-c2cc(CC)c(=O)[nH]c2C)nc1 [Example 209, 5′-Ethyl-2′-methyl-6′-oxo-1′,6′-dihydro-[2,3′]bipyridinyl-5-carboxylic acid butylamide]
